“Also recorded” adds a separate entry of the source. Square brackets hold non-standard residues; d marks the D form. Ends that are not written are not given here. pGlu = O=C1CC[C@@H](C(=O)O)N1
Test system: panelists
Assay: Descriptive profile (Spectrum method) of peptide in 0.2% NaCl solution, in-mouth
Type: in vivo, human
Conditions: for Astringent, in-mouth perception / Bitter, in-mouth perception / Flinty/Mineral, in-mouth perception / Metallic, in-mouth perception / Numbing, in-mouth perception / Salt, in-mouth perception (mean salt perception in-mouth) / Sour, in-mouth perception / Sweet, in-mouth perception: mean score, 15-point scale; for Level of the aromatics, basic tastes and chemical feeling factors in-mouth with increasing concentration: 0.1 to 40.0/50.0 ppb; for Salt perception in-mouth as the concentration increases: 0.1 to 40.0/50.0 ppb in 0.2% NaCl; for Umami like swelling of lips and tongue, in-mouth: all levels; for Umami like feeling factor of lip and tongue swelling: both in-mouth and after expectoration
Experimental: Descriptive Profiles (Flavor and Chemical Feeling Factors) of five use levels of a pGlu-Val-Leu flavor composition were determined using the Spectrum™ method. The five use levels were as follows: 0.1 ppb, 0.5 ppb, 1.0 ppb, 10.0 ppb and 40.0 ppb.
Data was collected for the flavor and chemical feeling factors of the product in-mouth for each of the five use levels according to the following protocol. One replication was collected for the flavor and chemical feeling factors of the product in-mouth. 6-9 panelists evaluated per session.
2. Each panelist tasted a test sample (0.1 ppb, 0.5 ppb, 1.0 ppb, 10.0 ppb or 40.0 ppb all in 0.2% NaCl solution). Only one sample was tasted per session.
Descriptive attributes (e.g., taste, flavor and chemical feeling factors) of six use levels of pGlu-Val-Leu (SE-13), pGlu-Val (SE-14) and pGlu-Val-Val (SE-17) flavor composition peptides were determined. The six use levels were as follows: 0.1 ppb, 0.5 ppb, 1.0 ppb, 10.0 ppb, 40.0 ppb and 50.0 ppb.
Data was collected for the attributes of the product in-mouth for the use levels according to the following protocol: • The samples were analyzed for flavor and aftertaste by six-nine members of a panel, trained and experienced in appearance, flavor and texture evaluation using the Spectrum™ method. Samples in solution were evaluated across multiple panel sessions. • The strength of each attribute was rated on a 15-point scale, where 0=none and 15=very strong. • This scale incorporates the ability to use tenths of a point and therefore has the potential of 150 scale differentiations. • The scale may be expanded beyond 15 points to include extreme ratings if necessary.
Attribute Perception Protocol • The panelists evaluated each sample using the following procedure • Descriptive Profiles (flavor and chemical feeling factors) of 5 levels of salt enhancing solutions • Individual data was collected for the flavor and chemical feeling factors of the product in-mouth • Increased Salt Perception Protocol • Each panelist tasted salt 5 reference (0.35% salt solution)—to ground themselves on salt intensity of 5.0. • Each panelist tasted the test sample (0.1 ppb, 0.5 ppb, 1.0 ppb, 10.0 ppb or 40.0/50.0 ppb all in 0.2% NaCl solution: only one per session) • Each panelist then re-tasted the salt 5 reference and rated it for salt intensity as well as any other basic taste, chemical feeling factor, or aromatic perceived. This captured any increased salt perception indicated by the test sample as well as any other perceptions present. • Return to Baseline Protocol • After evaluating the sample for salt & other perceptions, panelists re-tasted the salt 5 reference at 1 minute intervals until their perception of the salt 5 saltiness intensity had returned to 5.0. Each panelist recorded their salt intensity at each interval and took qualitative notes on other perceptions seen in aftertaste. Sample Preparation
The 0.1, 0.5, 1.0 10, 40, and 50 ppb test samples of the flavor composition peptides were prepared in water as described in table 4.
The panelists evaluated each sample for the attributes described in table 5.

## [pGlu]-Val [SE-14]
0.1 ppb in 0.2% NaCl
  Astringent, in-mouth perception: 0.0
  Bitter, in-mouth perception: 0.0
  Flinty/Mineral, in-mouth perception: 0.8
  Metallic, in-mouth perception: 0.3
  Numbing, in-mouth perception: 0.0
  Salt, in-mouth perception (mean salt perception in-mouth): 1.8
  Sour, in-mouth perception: 0.0
  Sweet, in-mouth perception: 0.0
  Level of the aromatics, basic tastes and chemical feeling factors in-mouth with increasing concentration: does not increase
  Salt perception in-mouth as the concentration increases: increases slightly; also recorded: slight increase
  Umami like swelling of lips and tongue, in-mouth: Some panelists also experience Umami like swelling of lips and tongue
  Umami like feeling factor of lip and tongue swelling: Shows umami like feeling factor of lip and tongue swelling
0.5 ppb in 0.2% NaCl
  Astringent, in-mouth perception: 0.1
  Bitter, in-mouth perception: 0.0
  Flinty/Mineral, in-mouth perception: 0.6
  Metallic, in-mouth perception: 0.1
  Numbing, in-mouth perception: 0.0
  Salt, in-mouth perception (mean salt perception in-mouth): 2.5
  Sour, in-mouth perception: 0.0
  Sweet, in-mouth perception: 0.0
1.0 ppb in 0.2% NaCl
  Astringent, in-mouth perception: 0.1
  Bitter, in-mouth perception: 0.0
  Flinty/Mineral, in-mouth perception: 0.9
  Metallic, in-mouth perception: 0.1
  Numbing, in-mouth perception: 0.0
  Salt, in-mouth perception (mean salt perception in-mouth): 2.9
  Sour, in-mouth perception: 0.0
  Sweet, in-mouth perception: 0.0
10.0 ppb in 0.2% NaCl
  Astringent, in-mouth perception: 0.0
  Bitter, in-mouth perception: 0.0
  Flinty/Mineral, in-mouth perception: 0.9
  Metallic, in-mouth perception: 0.3
  Numbing, in-mouth perception: 0.0
  Salt, in-mouth perception (mean salt perception in-mouth): 3.3
  Sour, in-mouth perception: 0.0
  Sweet, in-mouth perception: 0.0
50.0 ppb in 0.2% NaCl
  Astringent, in-mouth perception: 0.0
  Bitter, in-mouth perception: 0.0
  Flinty/Mineral, in-mouth perception: 0.7
  Metallic, in-mouth perception: 0.2
  Numbing, in-mouth perception: 0.0
  Salt, in-mouth perception (mean salt perception in-mouth): 3.2
  Sour, in-mouth perception: 0.0
  Sweet, in-mouth perception: 0.0

## [pGlu]-Val-Leu [SE-13]
0.1 ppb in 0.2% NaCl
  Astringent, in-mouth perception: 0.0
  Bitter, in-mouth perception: 0.0
  Flinty/Mineral, in-mouth perception: 0.1
  Metallic, in-mouth perception: 0.1
  Numbing, in-mouth perception: 0.0
  Salt, in-mouth perception (mean salt perception in-mouth): 2.3
  Sour, in-mouth perception: 0.0
  Sweet, in-mouth perception: 0.0
  Level of the aromatics, basic tastes and chemical feeling factors in-mouth with increasing concentration: does not increase
  Salt perception in-mouth as the concentration increases: does not increase notably; also recorded: Does not show a notable increase
  Umami like swelling of lips and tongue, in-mouth: Panelists also experience Umami like swelling of lips and tongue
  Umami like feeling factor of lip and tongue swelling: Shows umami like feeling factor of lip and tongue swelling
Listed as pGlu-Val-Leu
  Salt perception in-mouth as the concentration increases: did not significantly increase
0.5 ppb in 0.2% NaCl
  Astringent, in-mouth perception: 0.0
  Bitter, in-mouth perception: 0.0
  Flinty/Mineral, in-mouth perception: 0.3
  Metallic, in-mouth perception: 0.3
  Numbing, in-mouth perception: 0.0
  Salt, in-mouth perception (mean salt perception in-mouth): 2.8
  Sour, in-mouth perception: 0.0
  Sweet, in-mouth perception: 0.2
1.0 ppb in 0.2% NaCl
  Astringent, in-mouth perception: 0.0
  Bitter, in-mouth perception: 0.0
  Flinty/Mineral, in-mouth perception: 0.5
  Metallic, in-mouth perception: 0.1
  Numbing, in-mouth perception: 0.0
  Salt, in-mouth perception (mean salt perception in-mouth): 2.3
  Sour, in-mouth perception: 0.0
  Sweet, in-mouth perception: 0.0
10.0 ppb in 0.2% NaCl
  Astringent, in-mouth perception: 0.0
  Bitter, in-mouth perception: 0.0
  Flinty/Mineral, in-mouth perception: 0.3
  Metallic, in-mouth perception: 0.1
  Numbing, in-mouth perception: 0.0
  Salt, in-mouth perception (mean salt perception in-mouth): 3.1
  Sour, in-mouth perception: 0.0
  Sweet, in-mouth perception: 0.0
40.0 ppb in 0.2% NaCl
  Astringent, in-mouth perception: 0.0
  Bitter, in-mouth perception: 0.0
  Flinty/Mineral, in-mouth perception: 0.4
  Metallic, in-mouth perception: 0.1
  Numbing, in-mouth perception: 0.0
  Salt, in-mouth perception (mean salt perception in-mouth): 2.8
  Sour, in-mouth perception: 0.0
  Sweet, in-mouth perception: 0.0

## [pGlu]-Val-Val [SE-17]
0.1 ppb in 0.2% NaCl
  Astringent, in-mouth perception: 0.0
  Bitter, in-mouth perception: 0.0
  Flinty/Mineral, in-mouth perception: 0.7
  Metallic, in-mouth perception: 0.0
  Numbing, in-mouth perception: 0.0
  Salt, in-mouth perception (mean salt perception in-mouth): 3.1
  Sour, in-mouth perception: 0.0
  Sweet, in-mouth perception: 0.0
  Level of the aromatics, basic tastes and chemical feeling factors in-mouth with increasing concentration: does not increase
  Salt perception in-mouth as the concentration increases: does not increase notably; also recorded: Does not show a notable increase; also recorded: did not necessarily increase
  Umami like swelling of lips and tongue, in-mouth: Some panelists also experience Umami like swelling of lips and tongue
  Umami like feeling factor of lip and tongue swelling: Shows umami like feeling factor of lip and tongue swelling
0.5 ppb in 0.2% NaCl
  Astringent, in-mouth perception: 0.0
  Bitter, in-mouth perception: 0.0
  Flinty/Mineral, in-mouth perception: 0.8
  Metallic, in-mouth perception: 0.3
  Numbing, in-mouth perception: 0.0
  Salt, in-mouth perception (mean salt perception in-mouth): 4.0
  Sour, in-mouth perception: 0.0
  Sweet, in-mouth perception: 0.0
1.0 ppb in 0.2% NaCl
  Astringent, in-mouth perception: 0.0
  Bitter, in-mouth perception: 0.0
  Flinty/Mineral, in-mouth perception: 0.5
  Metallic, in-mouth perception: 0.0
  Numbing, in-mouth perception: 0.0
  Salt, in-mouth perception (mean salt perception in-mouth): 2.8
  Sour, in-mouth perception: 0.0
  Sweet, in-mouth perception: 0.0
10.0 ppb in 0.2% NaCl
  Astringent, in-mouth perception: 0.0
  Bitter, in-mouth perception: 0.0
  Flinty/Mineral, in-mouth perception: 0.5
  Metallic, in-mouth perception: 0.0
  Numbing, in-mouth perception: 0.0
  Salt, in-mouth perception (mean salt perception in-mouth): 3.6
  Sour, in-mouth perception: 0.0
  Sweet, in-mouth perception: 0.0
50.0 ppb in 0.2% NaCl
  Astringent, in-mouth perception: 0.0
  Bitter, in-mouth perception: 0.0
  Flinty/Mineral, in-mouth perception: 0.5
  Metallic, in-mouth perception: 0.0
  Numbing, in-mouth perception: 0.0
  Salt, in-mouth perception (mean salt perception in-mouth): 3.9
  Sour, in-mouth perception: 0.0
  Sweet, in-mouth perception: 0.0
overall
  Levels of salt perception in-mouth, comparison of SE-13, SE-14 and SE-17: highest levels

Source: patent US10856562B2, “Flavor composition and edible compositions containing same” (MARS, INCORPORATED, priority 2013, dated 2020)
